# Laboratory results taken from patent publication US8753833B2, “Copolymer assay” (Momenta Pharmaceuticals, Inc., priority 2007, dated 2014).
# Marks after values point to notes of the source that are not given here.
# How the values were obtained:
# THP-1 cells [1] = experiment: THP-1 copolymer assay: secretion of IFN-γ-regulated chemokines, cytokines, receptors and proteases, Searchlight multiplex analysis; assay type: cell-based, human; conditions: for I-TAC / IP-10 / MIG: IFN-γ 10 ng/ml, 22-24 hours, 12 samples
# Procedure: THP-1 cells (ATCC, TIB-202) were received from the American Type Culture Collection (ATCC). […] Cells were grown in complete growth medium and incubated in a 37° C., 5% CO2 incubator.
# Assay medium was prepared fresh the day of the assay. The assay medium consisted of 2 mM Glutamax I Supplement (Invitrogen, 35050-79) in X-VIVO 15 serum-free medium (Cambrex, 04-418Q). These reagents were filtered in a 0.2 micron cellulose acetate filter unit (Nalgene, 156-4020). After filtration, the bottle was covered with foil to protect the medium from light.
# COPAXONE® (glatiramer acetate; Teva Pharmaceuticals) was stored in the manufacturer's syringe at 4° C. Samples were prepared at a 2× concentration in the 2×IFN-γ assay medium in sterile, siliconized microfuge tubes. Final concentrations from 0 μg/ml to 400 μg/ml were tested in the assay.
# Human IFN-γ (R&D Systems, 285-IF-100) was reconstituted with sterile 0.2% bovine serum albumin (BSA) in phosphate-buffered saline (PBS) (Chemicon, 3225-80).
# On the day prior to assay, THP-1 cells were seeded at 2×10^5 cells/ml (20 ml final volume). These cells were harvested by centrifugation at 400×g, 5 min, 18° C. Cells were washed once with assay medium (without IFN-γ) and resuspended in assay medium (without IFN-γ) and counted. THP-1 cells were resuspended at 5×10^5 cells/ml in assay medium (with 0, 1, 10, and 100 ng/ml final concentration of IFN-γ). […] Assay plates were incubated for 0 to 23 hours in a 37° C., 5% CO2 incubator.
# Conditioned medium was harvested into non-sterile, siliconized tubes. Tubes were centrifuged at 400×g, 5 min, 4° C. The supernatants were transferred to new, siliconized tubes and flash frozen in liquid nitrogen. Frozen conditioned medium was stored at −80° C. until they were submitted for Searchlight multiplex cytokine analysis (Pierce Endogen, Woburn, Mass.).
# THP-1 cells [2] = experiment: as above; assay type: cell-based, human; conditions: IFN-γ 10 ng/ml, 22-24 hours, 12 samples
# [3] = 50 μg/ml COPAXONE and 10 ng/ml IFN-γ, FIG. 1
# [4] = 23 hours, GA 2 μg/ml, IFNγ 0 ng/ml
# [5] = 23 hours, GA 2 μg/ml, IFNγ 10 ng/ml
# [6] = 23 hours, GA 2 μg/ml, IFNγ 100 ng/ml
# [7] = 23 hours, GA 2 μg/ml, IFNγ 1000 ng/ml
# [8] = 23 hours, GA 10 μg/ml, IFNγ 0 ng/ml
# [9] = 23 hours, GA 10 μg/ml, IFNγ 10 ng/ml
# [10] = 23 hours, GA 10 μg/ml, IFNγ 100 ng/ml
# [11] = 23 hours, GA 10 μg/ml, IFNγ 1000 ng/ml
# [12] = IFNγ + 50 μg/ml I356 over IFNγ alone (10 ng/ml)
substance,measurement,setting,value
glatiramer acetate [COPAXONE®],"I-TAC level, fold higher than baseline containing IFN-γ alone",THP-1 cells [1]; [3],412 fold
same,"IP-10 level, fold higher than baseline containing IFN-γ alone",THP-1 cells [1]; [3],329 fold
same,"MIG level, fold higher than baseline containing IFN-γ alone",THP-1 cells [1]; [3],573 fold
same,"I-TAC induction, fold increase over the control (0)",THP-1 cells [1]; [4],1 fold
same,"IP-10 induction, fold increase over the control (0)",THP-1 cells [1]; [4],0 fold
same,"MIG induction, fold increase over the control (0)",THP-1 cells [1]; [4],1 fold
same,"I-TAC induction, fold increase over the control (0)",THP-1 cells [1]; [5],10 fold
same,"IP-10 induction, fold increase over the control (0)",THP-1 cells [1]; [5],72 fold
same,"MIG induction, fold increase over the control (0)",THP-1 cells [1]; [5],21 fold
same,"I-TAC induction, fold increase over the control (0)",THP-1 cells [1]; [6],46 fold
same,"IP-10 induction, fold increase over the control (0)",THP-1 cells [1]; [6],49 fold
same,"MIG induction, fold increase over the control (0)",THP-1 cells [1]; [6],39 fold
same,"I-TAC induction, fold increase over the control (0)",THP-1 cells [1]; [7],23 fold
same,"IP-10 induction, fold increase over the control (0)",THP-1 cells [1]; [7],13 fold
same,"MIG induction, fold increase over the control (0)",THP-1 cells [1]; [7],23 fold
same,"I-TAC induction, fold increase over the control (0)",THP-1 cells [1]; [8],4 fold
same,"IP-10 induction, fold increase over the control (0)",THP-1 cells [1]; [8],0 fold
same,"MIG induction, fold increase over the control (0)",THP-1 cells [1]; [8],1 fold
same,"I-TAC induction, fold increase over the control (0)",THP-1 cells [1]; [9],51 fold
same,"IP-10 induction, fold increase over the control (0)",THP-1 cells [1]; [9],233 fold
same,"MIG induction, fold increase over the control (0)",THP-1 cells [1]; [9],284 fold
same,"I-TAC induction, fold increase over the control (0)",THP-1 cells [1]; [10],113 fold
same,"IP-10 induction, fold increase over the control (0)",THP-1 cells [1]; [10],67 fold
same,"MIG induction, fold increase over the control (0)",THP-1 cells [1]; [10],333 fold
same,"I-TAC induction, fold increase over the control (0)",THP-1 cells [1]; [11],49 fold
same,"IP-10 induction, fold increase over the control (0)",THP-1 cells [1]; [11],14 fold
same,"MIG induction, fold increase over the control (0)",THP-1 cells [1]; [11],160 fold
same,IFN-γ concentration at which fold-induction over baseline is maximal,"THP-1 cells [1]; 23 hours, IP-10, I-TAC, MIG",1 to 10 ng/mL
same,IP-10 production in the absence of IFN-γ,"THP-1 cells [1]; COPAXONE alone, no IFN-γ",do not produce any significant amount
same,"Earliest time at which lower levels of IP-10, I-TAC and MIG can be detected",THP-1 cells [1]; COPAXONE and the higher IFN-γ concentrations,3 to 6 h
same,"Effect on secretion of IP-10, I-TAC and MIG",THP-1 cells [1]; COPAXONE in combination with IFN-γ,"striking, concentration-dependent effect"
same,I309 secretion,THP-1 cells [1]; IFNγ 10 ng/ml + 50 μg/ml I356,15.6* pg/ml
same,ICAM1 secretion,THP-1 cells [1]; IFNγ 10 ng/ml + 50 μg/ml I356,279.9* pg/ml
same,IL1β secretion,THP-1 cells [1]; IFNγ 10 ng/ml + 50 μg/ml I356,0.5* pg/ml
same,IL12p70 secretion,THP-1 cells [1]; IFNγ 10 ng/ml + 50 μg/ml I356,8.9* pg/ml
same,IL-6 secretion,THP-1 cells [1]; IFNγ 10 ng/ml + 50 μg/ml I356,3.8* pg/ml
same,IL-8 secretion,THP-1 cells [1]; IFNγ 10 ng/ml + 50 μg/ml I356,217.1* pg/ml
same,IL-10 secretion,THP-1 cells [1]; IFNγ 10 ng/ml + 50 μg/ml I356,0.7* pg/ml
same,IP10 secretion,THP-1 cells [1]; IFNγ 10 ng/ml + 50 μg/ml I356,4060.5* pg/ml
same,MCP1 secretion,THP-1 cells [1]; IFNγ 10 ng/ml + 50 μg/ml I356,688.2* pg/ml
same,MDC secretion,THP-1 cells [1]; IFNγ 10 ng/ml + 50 μg/ml I356,23.6* pg/ml
same,MIP1α secretion,THP-1 cells [1]; IFNγ 10 ng/ml + 50 μg/ml I356,73.9* pg/ml
same,MMP2 secretion,THP-1 cells [1]; IFNγ 10 ng/ml + 50 μg/ml I356,915.9* pg/ml
same,MMP9 secretion,THP-1 cells [1]; IFNγ 10 ng/ml + 50 μg/ml I356,8.9* pg/ml
same,RANTES secretion,THP-1 cells [1]; IFNγ 10 ng/ml + 50 μg/ml I356,352.2* pg/ml
same,TARC secretion,THP-1 cells [1]; IFNγ 10 ng/ml + 50 μg/ml I356,35.2* pg/ml
same,TIMP1 secretion,THP-1 cells [1]; IFNγ 10 ng/ml + 50 μg/ml I356,6364.3* pg/ml
same,TNFR1 secretion,THP-1 cells [1]; IFNγ 10 ng/ml + 50 μg/ml I356,35.8* pg/ml
same,TNFR2 secretion,THP-1 cells [1]; IFNγ 10 ng/ml + 50 μg/ml I356,34.4* pg/ml
same,TNFα secretion,THP-1 cells [1]; IFNγ 10 ng/ml + 50 μg/ml I356,61.3* pg/ml
same,IFNγ level in culture medium,"THP-1 cells [1]; IFNγ 10 ng/ml + 50 μg/ml I356, 24 hr",4575.9* pg/ml
same,I309 Fold-increase,THP-1 cells [1]; [12],9.7 fold
same,ICAM1 Fold-increase,THP-1 cells [1]; [12],6.0 fold
same,IFNγ Fold-increase,THP-1 cells [1]; [12],9.7 fold
same,IL1β Fold-increase,THP-1 cells [1]; [12],2.4 fold
same,IL12p70 Fold-increase,THP-1 cells [1]; [12],1.9 fold
same,IL-6 Fold-increase,THP-1 cells [1]; [12],19.0 fold
same,IL-8 Fold-increase,THP-1 cells [1]; [12],8.5 fold
same,IL-10 Fold-increase,THP-1 cells [1]; [12],2.0 fold
same,IP10 Fold-increase,THP-1 cells [1]; [12],226.3 fold
same,MCP1 Fold-increase,THP-1 cells [1]; [12],21.3 fold
same,MDC Fold-increase,THP-1 cells [1]; [12],10.6 fold
same,MIP1α Fold-increase,THP-1 cells [1]; [12],7.1 fold
same,MMP2 Fold-increase,THP-1 cells [1]; [12],5.8 fold
same,MMP9 Fold-increase,THP-1 cells [1]; [12],0.2 fold
same,RANTES Fold-increase,THP-1 cells [1]; [12],3.6 fold
same,TARC Fold-increase,THP-1 cells [1]; [12],3.0 fold
same,TIMP1 Fold-increase,THP-1 cells [1]; [12],1.7 fold
same,TNFR1 Fold-increase,THP-1 cells [1]; [12],5.2 fold
same,TNFR2 Fold-increase,THP-1 cells [1]; [12],3.1 fold
same,TNFα Fold-increase,THP-1 cells [1]; [12],1.8 fold
same,Fold induction over baseline by culture medium,THP-1 cells [1]; X-VIVO15 serum-free defined medium compared with FBS media,highest fold induction over baseline
same,I-TAC,THP-1 cells [1]; [GA] 0.78 μg/ml,16.5 pg/mL
same,IP-10,THP-1 cells [1]; [GA] 0.78 μg/ml,259.2 pg/mL
same,I-TAC,THP-1 cells [1]; [GA] 1.56 μg/ml,42.1 pg/mL
same,IP-10,THP-1 cells [1]; [GA] 1.56 μg/ml,483.7 pg/mL
same,I-TAC,THP-1 cells [1]; [GA] 3.13 μg/ml,82.6 pg/mL
same,IP-10,THP-1 cells [1]; [GA] 3.13 μg/ml,580.8 pg/mL
same,I-TAC,THP-1 cells [1]; [GA] 6.25 μg/ml,105.9 pg/mL
same,IP-10,THP-1 cells [1]; [GA] 6.25 μg/ml,581.4 pg/mL
same,MIG,THP-1 cells [1]; [GA] 6.25 μg/ml,2704.5 pg/mL
same,I-TAC,THP-1 cells [1]; [GA] 12.5 μg/ml,179.2 pg/mL
same,MIG,THP-1 cells [1]; [GA] 12.5 μg/ml,3608 pg/mL
same,IP-10,THP-1 cells [1]; [GA] 25 μg/ml,829 pg/mL
same,MIG,THP-1 cells [1]; [GA] 25 μg/ml,4480.6 pg/mL
same,I-TAC,THP-1 cells [1]; [GA] 50 μg/ml,532.6 pg/mL
same,IP-10,THP-1 cells [1]; [GA] 50 μg/ml,2150.8 pg/mL
same,MIG,THP-1 cells [1]; [GA] 50 μg/ml,13771.2 pg/mL
same,I-TAC,THP-1 cells [1]; [GA] 100 μg/ml,2444 pg/mL
same,IP-10,THP-1 cells [1]; [GA] 100 μg/ml,12865.1 pg/mL
same,MIG,THP-1 cells [1]; [GA] 100 μg/ml,45353.3 pg/mL
same,I-TAC,THP-1 cells [1]; [GA] 200 μg/ml,2091.2 pg/mL
same,MIG,THP-1 cells [1]; [GA] 200 μg/ml,37897.5 pg/mL
same,I-TAC,THP-1 cells [1]; [GA] 400 μg/ml,1560.5 pg/mL
same,IP-10,THP-1 cells [1]; [GA] 400 μg/ml,6111.3 pg/mL
same,IFN-γ levels with COPAXONE treatment,THP-1 cells [1]; measured at 24 hours,concentration-dependent increase
same,"Secretion of IP-10, MIG, I-TAC and IFN-γ in all medium conditions",THP-1 cells [1]; various concentrations of FBS or X-VIVO15 serum-free medium,robust secretion
same,MIG,THP-1 cells [2]; [GA] 0.78 μg/ml,149.7 pg/mL
same,MIG,THP-1 cells [2]; [GA] 1.56 μg/ml,345.6 pg/mL
same,MIG,THP-1 cells [2]; [GA] 3.13 μg/ml,933.6 pg/mL
same,IP-10,THP-1 cells [2]; [GA] 12.5 μg/ml,782.6 pg/mL
same,I-TAC,THP-1 cells [2]; [GA] 25 μg/ml,247.1 pg/mL
same,IP-10,THP-1 cells [2]; [GA] 200 μg/ml,10899 pg/mL
same,MIG,THP-1 cells [2]; [GA] 400 μg/ml,27574.5 pg/mL
